Laboratory results published in publication PMC7954794, “Protein context shapes the specificity of SH3 domain-mediated interactions in vivo” (Nature Communications, 2021).

What was measured:
[1] = tested on: growth of yeast strains under 51 stress conditions; assay: Growth assays in 51 stress conditions (Fig. 1E-F, S2D, S5B); assay type: cell-based, Saccharomyces cerevisiae; set-up: key to Growth (Fig. S2D) / growth of ABP1 SH3-swapped strains in stress condition: log2 colony size, average of median per strain (growth score); conditions: FigS2D
Description: All WT, SH3-deleted, KO (except for CDC25 which is the only essential SH3-containing gene in yeast), ABP1 SH3-swapped, and SLA1 SH3-shuffled strains were grown on omnitrays in 1536 formats and robotically manipulated with a pin tool (the DHFR F[1,2] bait strains were used except for the KO strains). Each strain was randomly positioned in 6 replicates per plate and two plates per condition were performed, for 12 replicates per strain in total. A border of two rows and two columns of WT strains (BY4741) around the plate was used to remove border effects. Strains were grown on YPD media for two days at 30 °C. They were then replicated on 51 different media that are described in the Supplementary Table 3 and were incubated at 37 °C in a spImager custom platform with images acquired every two hours for four days. The colony sizes from plate pictures were also measured with the R package “Gitter” and the output was manually inspected. Positions with an abnormality in colony circularity were removed. The colony sizes after 74 h of incubation at 37 °C were log2 transformed and used for the analyses. First, the differences between the two plate replicates were corrected to remove plate effects. The median colony size was calculated for each strain per plate. Strains with a difference in their median colony size of more than two between the two plate replicates were removed. Finally, the average of the median colony size was calculated for each strain per condition (growth score).

[2] = tested on: PPIs identified as affected by the SH3 domain deletions; assay: Liquid DHFR-PCA low-throughput validation of PPIs affected by SH3 deletion (Fig. S1D-E); assay type: cell-based, Saccharomyces cerevisiae; conditions: Deletedscore/WTscore
Description: Liquid DHFR-PCA low-throughput experiments were performed to validate the PPIs identified as affected by the SH3 domain deletions in the high-throughput solid DHFR-PCA screen (256 PPIs weaker or lost and 116 PPIs stronger or gained following domain deletions). Mating and the diploid selection were performed as described for the large-scale experiment, with the exception that the plates were in 384 formats. Following the second diploid selection, diploid cells were inoculated in a 96 v-shaped well plate using a robotically manipulated 96 pin tool in a synthetic complete medium with MSG at pH 6.0 with NAT and HPH. After 48 h of growth, optical density (OD) was read using a TECAN Infinite F200 Pro, and dilutions to 1 OD in sterile nanopure water were prepared. Cells were then diluted to 0.1 OD by combining 25 µl of cell suspension at OD = 1 and 225 µl of PCA selection media without agar in a 96-wells plate. Plates were incubated at 30 °C in a TECAN Infinite M Nano and OD was monitored each 15 min for 72 h.

## RVS167
[1]; Bathophenanthroline.0.1uM
  growth of ABP1 SH3-swapped strains in stress condition: 10.8266
[1]; Bathophenanthroline.10uM
  growth of ABP1 SH3-swapped strains in stress condition: 10.6504
[1]; Bathophenanthroline.1uM
  growth of ABP1 SH3-swapped strains in stress condition: 10.7571
[1]; CaCl2.100mM
  growth of ABP1 SH3-swapped strains in stress condition: 10.7957
[1]; CaCl2.250mM
  growth of ABP1 SH3-swapped strains in stress condition: 10.7147
[1]; CaCl2.500mM
  growth of ABP1 SH3-swapped strains in stress condition: 10.2304
[1]; Caffein.10mM
  growth of ABP1 SH3-swapped strains in stress condition: 10.0011
[1]; Caffein.2mM
  growth of ABP1 SH3-swapped strains in stress condition: 10.9656
[1]; CdCl2.100uM
  growth of ABP1 SH3-swapped strains in stress condition: 9.478
[1]; CdCl2.10uM
  growth of ABP1 SH3-swapped strains in stress condition: 10.8675
[1]; CdCl2.50uM
  growth of ABP1 SH3-swapped strains in stress condition: 10.0052
[1]; CuSO4.1mM
  growth of ABP1 SH3-swapped strains in stress condition: 10.4401
[1]; CuSO4.5mM
  growth of ABP1 SH3-swapped strains in stress condition: 7.809
[1]; Cycloheximide.0.05.uM
  growth of ABP1 SH3-swapped strains in stress condition: 11.0732
[1]; Cycloheximide.0.2.uM
  growth of ABP1 SH3-swapped strains in stress condition: 10.5897
[1]; Cycloheximide.0.5.uM
  growth of ABP1 SH3-swapped strains in stress condition: 10.0755
[1]; DMSO.2.
  growth of ABP1 SH3-swapped strains in stress condition: 10.9922
[1]; DMSO.6.
  growth of ABP1 SH3-swapped strains in stress condition: 9.827
[1]; DMSO.8.
  growth of ABP1 SH3-swapped strains in stress condition: 9.078
[1]; Ethanol.2.
  growth of ABP1 SH3-swapped strains in stress condition: 10.7562
[1]; Ethanol.6.
  growth of ABP1 SH3-swapped strains in stress condition: 10.3054
[1]; Ethanol.8.
  growth of ABP1 SH3-swapped strains in stress condition: 10.1073
[1]; Galactose.2.
  growth of ABP1 SH3-swapped strains in stress condition: 10.7616
[1]; Glycerol.2.
  growth of ABP1 SH3-swapped strains in stress condition: 9.801
[1]; Hydroxyurea.25mM
  growth of ABP1 SH3-swapped strains in stress condition: 10.7452
[1]; Hygromycin.190uM
  growth of ABP1 SH3-swapped strains in stress condition: 10.9449
[1]; Hygromycin.19uM
  growth of ABP1 SH3-swapped strains in stress condition: 10.972
[1]; Hygromycin.95uM
  growth of ABP1 SH3-swapped strains in stress condition: 11.0099
[1]; MMS.0.004.
  growth of ABP1 SH3-swapped strains in stress condition: 10.8938
[1]; MMS.0.02.
  growth of ABP1 SH3-swapped strains in stress condition: 10.6752
[1]; MMS.0.04.
  growth of ABP1 SH3-swapped strains in stress condition: 9.941
[1]; Menadione.100uM
  growth of ABP1 SH3-swapped strains in stress condition: 10.5548
[1]; Menadione.200uM
  growth of ABP1 SH3-swapped strains in stress condition: 10.4212
[1]; Menadione.50uM
  growth of ABP1 SH3-swapped strains in stress condition: 10.7634
[1]; NaCl.0.25M
  growth of ABP1 SH3-swapped strains in stress condition: 10.7655
[1]; NaCl.1M
  growth of ABP1 SH3-swapped strains in stress condition: 9.597
[1]; Nitroquinoline.10uM
  growth of ABP1 SH3-swapped strains in stress condition: 10.6917
[1]; Nitroquinoline.50uM
  growth of ABP1 SH3-swapped strains in stress condition: 10.5789
[1]; Nystatin.0.01uM
  growth of ABP1 SH3-swapped strains in stress condition: 10.9774
[1]; Nystatin.0.1uM
  growth of ABP1 SH3-swapped strains in stress condition: 10.9878
[1]; Raffinose.2.
  growth of ABP1 SH3-swapped strains in stress condition: 11.0045
[1]; Rapamycin.10nM
  growth of ABP1 SH3-swapped strains in stress condition: 9.889
[1]; Rapamycin.50nM
  growth of ABP1 SH3-swapped strains in stress condition: 9.373
[1]; SC.pH3
  growth of ABP1 SH3-swapped strains in stress condition: 10.3957
[1]; SC.pH6
  growth of ABP1 SH3-swapped strains in stress condition: 10.965
[1]; SDS.0.01.
  growth of ABP1 SH3-swapped strains in stress condition: 10.9519
[1]; SDS.0.02.
  growth of ABP1 SH3-swapped strains in stress condition: 11.0022
[1]; SDS.0.05.
  growth of ABP1 SH3-swapped strains in stress condition: 10.8383
[1]; Sorbitol.10mM
  growth of ABP1 SH3-swapped strains in stress condition: 10.9602
[1]; Sorbitol.1mM
  growth of ABP1 SH3-swapped strains in stress condition: 11.0196
[1]; Sorbitol.5mM
  growth of ABP1 SH3-swapped strains in stress condition: 10.9136
[2]; prey YLR144C_1
  Ratio: 0.9983
[2]; prey YLR166C_1
  Ratio: 0.4047
[2]; prey YLR314C_1
  Ratio: 1.009
[2]; prey YLR332W_1
  Ratio: 0.5527
[2]; prey YML016C_1
  Ratio: 0.7209
[2]; prey YMR192W_1
  Ratio: 0.4415
[2]; prey YNL084C_1
  Ratio: 0.8207
[2]; prey YNL106C_1
  Ratio: 0.4642
[2]; prey YNL255C_1
  Ratio: 0.9975
[2]; prey YPL246C_1
  Ratio: 0.6027
[2]; prey YPL249C_1
  Ratio: 0.4423
[2]; prey YPR055W_1
  Ratio: 0.5489
